Measurements: patent publication US4248870A, “Maytansinoids and use” (Takeda Chemical Industries, Ltd., priority 1979, dated 1981)
In brackets after ≈: the same amount, converted by molar mass.

Legend:
[1] = system: Tetrahymena pyriformis W; assay: Antiprotozoal activity, growth inhibition by serial dilution method; assay type: cell-based; details: 28° C., 44 to 48 hours, pH 7.0, serial dilution method
Procedure: Antiprotozoal activity of compound (I) was assayed with Tetrahymena pyriformis W as the test organism and a medium composed of 20 g tryptose-peptone (Difco Co.), 1 g yeast extract, 2 glucose, 1000 ml distilled water, 10 ml 1 M phosphate buffer (pH 7.0) as the assay medium. The microorganism was incubated at 28° C. for 44 to 48 hours and the growth inhibitory activity of compound (I) was assayed by the serial dilution method.

[2] = system: melanoma B-16; assay: Therapeutic test in mice, melanoma B-16 transplanted intraperitoneally (life span prolongation); assay type: in vivo; details: intraperitoneally once daily for 9 consecutive days
Procedure: (§1) Therapeutic tests were carried out in mice according to NCI-protocols 1,200 and 1,300, Cancer Chemother, Reports, Part 3, 1972, Vol. 3, No. 2, in which leukemia P-388 and melanoma B-16 tumor cells had been intraperitoneally transplanted, compound (I) being administered intraperitoneally once daily for 9 consecutive days.

[3] = system: leukemia P-388; assay: Therapeutic test in mice, leukemia P-388 transplanted intraperitoneally (life span prolongation); assay type: in vivo; details: intraperitoneally once daily for 9 consecutive days
Procedure: as §1

Molecule `COc1cc2cc(c1Cl)N(C)C(=O)CC(OC(=O)c1ccco1)C1(C)OC1C(C)C1CC(O)(NC(=O)O1)C(OC)C=CC=C(C)C2` (centres unmarked) [Maytansinol 3-(2-furane)carboxylate, Maytansinol 3-(2-furan)carboxylate] has an MIC [1] of no less than 4 µg/mL.
`COc1cc2cc(c1Cl)N(C)C(=O)CC(OC(=O)c1cccs1)C1(C)OC1C(C)C1CC(O)(NC(=O)O1)C(OC)C=CC=C(C)C2` (centres unmarked) [Maytansinol 3-(2-thiophene)carboxylate] showed an MIC [1] of no less than 4 µg/mL.
Work on `COc1cc2cc(c1Cl)N(C)C(=O)CC(OC(=O)CCc1ccccc1)C1(C)OC1C(C)C1CC(O)(NC(=O)O1)C(OC)C=CC=C(C)C2` (centres unmarked) [Maytansinol 3-(3-phenyl)propionate, Maytansinol 3-phenylpropionate] yielded an MIC [1] of 2 to 4 µg/mL (≈ 2.87 to 5.74 µM).
In the case of `COc1cc2cc(c1Cl)N(C)C(=O)CC(OC(=O)c1ccc(Cl)cc1)C1(C)OC1C(C)C1CC(O)(NC(=O)O1)C(OC)C=CC=C(C)C2` (centres unmarked) [Maytansinol 3-(p-chloro)benzoate, Maytansinol 3-p-chlorobenzoate], the MIC [1] is reported as no less than 4 µg/mL.
`COc1cc2cc(c1Cl)N(C)C(=O)CC(OC(=O)c1ccccc1)C1(C)OC1C(C)C1CC(O)(NC(=O)O1)C(OC)C=CC=C(C)C2` (centres unmarked) [Maytansinol 3-benzoate] showed an MIC [1] of 4 µg/mL (≈ 5.98 µM).
With `COc1cc2cc(c1Cl)N(C)C(=O)CC(OC(=O)C1CCCCC1)C1(C)OC1C(C)C1CC(O)(NC(=O)O1)C(OC)C=CC=C(C)C2` (centres unmarked) [Maytansinol 3-cyclohexane carboxylate, Maytansinol 3-cyclohexanecarboxylate] the “Antitumor activities B-16 (T/C %)” value ([2]; 25 μg/kg) was 193%, the “Antitumor activities B-16 (T/C %)” value ([2]; 50 μg/kg) was 188% and the “Antitumor activities B-16 (T/C %)” value ([2]; 100 μg/kg) was 193%. For the same molecule, the MIC [1] was less than 2 µg/mL.
`COc1cc2cc(c1Cl)N(C)C(=O)CC(OC(=O)C1CC1)C1(C)OC1C(C)C1CC(O)(NC(=O)O1)C(OC)C=CC=C(C)C2` (centres unmarked) [Maytansinol 3-cyclopropane carboxylate, Maytansinol 3-cyclopropanecarboxylate] was tested, and the MIC [1] was 4 µg/mL (≈ 6.32 µM).
With `COc1cc2cc(c1Cl)N(C)C(=O)CC(OC(=O)Cc1ccccc1)C1(C)OC1C(C)C1CC(O)(NC(=O)O1)C(OC)C=CC=C(C)C2` (centres unmarked) [Maytansinol 3-phenylacetate] the “Antitumor activities P-388 (T/C %)” value ([3]; 12.5 μg/kg) was 164%, the “Antitumor activities P-388 (T/C %)” value ([3]; 25 μg/kg) was 185% and the “Antitumor activities B-16 (T/C %)” value ([2]; 12.5 μg/kg) was 207%. For the same molecule, the “Antitumor activities B-16 (T/C %)” value ([2]; 25 μg/kg) was 230% and the MIC [1] was less than 2 µg/mL.
With `COc1cc2cc(c1Cl)N(C)C(=O)CC(OC(=O)c1ccccn1)C1(C)OC1C(C)C1CC(O)(NC(=O)O1)C(OC)C=CC=C(C)C2` (stereo not drawn) [Maytansinol 3-α-picolinate, Maytansinol 3-picolinate] the “Antitumor activities P-388 (T/C %)” value ([3]; 50 μg/kg) was 193%, the “Antitumor activities P-388 (T/C %)” value ([3]; 100 μg/kg) was 185% and the “Antitumor activities B-16 (T/C %)” value ([2]; 100 μg/kg) was 176%. The “Antitumor activities B-16 (T/C %)” value ([2]; 200 μg/kg) was 173% and the MIC [1] was no less than 4 µg/mL.
